From the supplement of paper PMC10307832

Assays:
Experiment in all cases: relative viability (nuclei count vs DMSO), 5 days (fraction); higher = more cells survive
[1] = compound: COc1cc2c(Oc3ccc4[nH]c(C)cc4c3F)ncnc2cc1OCCCN1CCCC1 [Cediranib] + CC(=O)Nc1cccc(-n2c(=O)n(C3CC3)c(=O)c3c(Nc4ccc(I)cc4F)n(C)c(=O)c(C)c32)c1 [Trametinib] (partner 0.02 µM)
Method in brief: (§1)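 Dosing by pin tool came one day after lung cancer cell lines were seeded in 1536-well plates, using either one drug or a fixed anchor-drug dose plus five library-drug doses (not always all listed) in √10 steps. After 5 days, nuclei were counted on 4× images. Relative viability is treated-well nuclei count divided by vehicle-well nuclei count, and values are medians of duplicate plates.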

[2] = compound: COc1cc2c(Oc3ccc4[nH]c(C)cc4c3F)ncnc2cc1OCCCN1CCCC1 [Cediranib] + C[C@]1(O)C[C@@H](c2nc(-c3ccc4ccc(-c5ccccc5)nc4c3)c3c(N)nccn32)C1 [Linsitinib] (partner 1 µM)
Method in brief: as §1

[3] = compound: Nc1ncn([C@H]2C[C@H](O)[C@@H](CO)O2)c(=O)n1 [Decitabine] + CC(C)C[C@H](NC(=O)[C@H](Cc1ccccc1)NC(=O)c1cnccn1)B(O)O [Bortezomib] (partner 0.002 µM)
Method in brief: as §1

[4] = compound: O=C(C[C@H]1NCCC[C@@H]1O)Cn1cnc2cc(Br)c(Cl)cc2c1=O (racemic) [Halofuginone] + N=C(N)NC(=N)NCCc1ccccc1 [Phenformin] (partner 250 µM)
Method in brief: as §1

UMC-11
relative viability ([1]; first compound 0.04 µM): 0.684
relative viability ([1]; first compound 0.1265 µM): 0.234
relative viability ([1]; first compound 0.4 µM): 0.586
relative viability ([1]; first compound 1.265 µM): 0.394
relative viability ([1]; first compound 4 µM): 0.721
relative viability ([2]; first compound 0.04 µM): 1.06
relative viability ([2]; first compound 0.1265 µM): 1.02
relative viability ([2]; first compound 0.4 µM): 0.955
relative viability ([2]; first compound 1.265 µM): 0.957
relative viability ([2]; first compound 4 µM): 0.934
relative viability ([3]; first compound 0.04 µM): 0.681
relative viability ([3]; first compound 0.1265 µM): 0.58
relative viability ([3]; first compound 0.4 µM): 0.31
relative viability ([3]; first compound 1.265 µM): 0.275
relative viability ([3]; first compound 4 µM): 0.252
relative viability ([4]; first compound 0.001 µM): 0.345
relative viability ([4]; first compound 0.003162 µM): 0.343
relative viability ([4]; first compound 0.01 µM): 0.324
relative viability ([4]; first compound 0.03162 µM): 0.316
relative viability ([4]; first compound 0.1 µM): 0.267
